Data taken from ChEMBL document CHEMBL5724914, “Linking interpersonal differences in gut microbiota composition and drug biotransformation activity” (2024).

Legend:
[1] = human gut metagenome, 24 h, 2 µM
[2] = The drug is tested on WLS-052 corresponding to human gut metagenome with ENA study accession number: PRJEB37062 and ENA sample accession number: ERS12561747 for biotransformation under anaerobic condition. The drug concentrations were measured over 9 timepoints collected between 0 and 24 hours of incubation by liquid-chromatography-coupled mass spectrometry (LC–MS); settings: 2 µM
[3] = The drug is tested on Z-011 corresponding to mouse gut metagenome with ENA study accession number: PRJEB37062 and ENA sample accession number: ERS12561811 for biotransformation under anaerobic condition. The drug concentrations were measured over 9 timepoints collected between 0 and 24 hours of incubation by liquid-chromatography-coupled mass spectrometry (LC–MS); settings: 2 µM
[4] = The drug is tested on WLS-098 corresponding to human gut metagenome with ENA study accession number: PRJEB37062 and ENA sample accession number: ERS12561754 for biotransformation under anaerobic condition. The drug concentrations were measured over 9 timepoints collected between 0 and 24 hours of incubation by liquid-chromatography-coupled mass spectrometry (LC–MS); settings: 2 µM
[5] = The drug is tested on Z-001 corresponding to mouse gut metagenome with ENA study accession number: PRJEB37062 and ENA sample accession number: ERS12561801 for biotransformation under anaerobic condition. The drug concentrations were measured over 9 timepoints collected between 0 and 24 hours of incubation by liquid-chromatography-coupled mass spectrometry (LC–MS); settings: 2 µM
[6] = human gut metagenome, 24 h, 2 µM; remark: listed apart in the source
[7] = The drug is tested on WLS-073 corresponding to human gut metagenome with ENA study accession number: PRJEB37062 and ENA sample accession number: ERS12561749 for biotransformation under anaerobic condition. The drug concentrations were measured over 9 timepoints collected between 0 and 24 hours of incubation by liquid-chromatography-coupled mass spectrometry (LC–MS); settings: 2 µM
[8] = The drug is tested on Z-023 corresponding to metagenome with ENA study accession number: PRJEB37062 and ENA sample accession number: ERS12561822 for biotransformation under anaerobic condition. The drug concentrations were measured over 9 timepoints collected between 0 and 24 hours of incubation by liquid-chromatography-coupled mass spectrometry (LC–MS); settings: 2 µM
[9] = human gut metagenome, 24 h, 2 µM; remark: listed apart in the source
[10] = human gut metagenome, 24 h, 2 µM; remark: listed apart in the source
[11] = human gut metagenome, 24 h, 2 µM; remark: listed apart in the source
[12] = human gut metagenome, 24 h, 2 µM; remark: listed apart in the source
[13] = The drug is tested on Z-020 corresponding to rabbit gut metagenome with ENA study accession number: PRJEB37062 and ENA sample accession number: ERS12561819 for biotransformation under anaerobic condition. The drug concentrations were measured over 9 timepoints collected between 0 and 24 hours of incubation by liquid-chromatography-coupled mass spectrometry (LC–MS); settings: 2 µM
[14] = The drug is tested on WLS-027 corresponding to human gut metagenome with ENA study accession number: PRJEB37062 and ENA sample accession number: ERS12561744 for biotransformation under anaerobic condition. The drug concentrations were measured over 9 timepoints collected between 0 and 24 hours of incubation by liquid-chromatography-coupled mass spectrometry (LC–MS); settings: 2 µM
[15] = The drug is tested on WLS-007 corresponding to human gut metagenome with ENA study accession number: PRJEB37062 and ENA sample accession number: ERS12561742 for biotransformation under anaerobic condition. The drug concentrations were measured over 9 timepoints collected between 0 and 24 hours of incubation by liquid-chromatography-coupled mass spectrometry (LC–MS); settings: 2 µM
[16] = The drug is tested on Z-012 corresponding to metagenome with ENA study accession number: PRJEB37062 and ENA sample accession number: ERS12561812 for biotransformation under anaerobic condition. The drug concentrations were measured over 9 timepoints collected between 0 and 24 hours of incubation by liquid-chromatography-coupled mass spectrometry (LC–MS); settings: 2 µM
[17] = The drug is tested on Z-027 corresponding to metagenome with ENA study accession number: PRJEB37062 and ENA sample accession number: ERS12561826 for biotransformation under anaerobic condition. The drug concentrations were measured over 9 timepoints collected between 0 and 24 hours of incubation by liquid-chromatography-coupled mass spectrometry (LC–MS); settings: 2 µM
[18] = human gut metagenome, 24 h, 2 µM; remark: listed apart in the source
[19] = human gut metagenome, 24 h, 2 µM; remark: listed apart in the source
[20] = The drug is tested on WLS-090 corresponding to human gut metagenome with ENA study accession number: PRJEB37062 and ENA sample accession number: ERS12561753 for biotransformation under anaerobic condition. The drug concentrations were measured over 9 timepoints collected between 0 and 24 hours of incubation by liquid-chromatography-coupled mass spectrometry (LC–MS); settings: 2 µM
Also: call rule not given here.

Structure (SMILES): CCOC(=O)[C@H](CCc1ccccc1)N[C@@H](C)C(=O)N1[C@H](C(=O)O)C[C@@H]2CCC[C@@H]21
- Bacterial Biotransformation [1]: Compound metabolized
- Bacterial Biotransformation [2]: Compound metabolized
- Bacterial Biotransformation [3]: Compound NOT metabolized
- Bacterial Biotransformation [4]: Compound metabolized
- Bacterial Biotransformation [5]: Compound NOT metabolized
- Bacterial Biotransformation [6]: Compound metabolized
- Bacterial Biotransformation [7]: Compound metabolized
- Bacterial Biotransformation [8]: Compound metabolized
- Bacterial Biotransformation [9]: Compound NOT metabolized
- Bacterial Biotransformation [10]: Compound NOT metabolized
- Bacterial Biotransformation [11]: Compound metabolized
- Bacterial Biotransformation [12]: Compound metabolized
- Bacterial Biotransformation [13]: Compound metabolized
- Bacterial Biotransformation [14]: Compound metabolized
- Bacterial Biotransformation [15]: Compound metabolized
- Bacterial Biotransformation [16]: Compound metabolized
- Bacterial Biotransformation [17]: Compound NOT metabolized
- Bacterial Biotransformation [18]: Compound metabolized
- Bacterial Biotransformation [19]: Compound metabolized
- Bacterial Biotransformation [20]: Compound metabolized

Structure (SMILES): CCN(CC)CCNC(C(=O)OCCC(C)C)c1ccccc1.Cl.Cl (centres undefined)
- Bacterial Biotransformation [1]: Compound metabolized
- Bacterial Biotransformation [2]: Compound NOT metabolized
- Bacterial Biotransformation [3]: Compound NOT metabolized
- Bacterial Biotransformation [4]: Compound metabolized
- Bacterial Biotransformation [5]: Compound metabolized
- Bacterial Biotransformation [6]: Compound NOT metabolized
- Bacterial Biotransformation [7]: Compound metabolized
- Bacterial Biotransformation [8]: Compound NOT metabolized
- Bacterial Biotransformation [9]: Compound NOT metabolized
- Bacterial Biotransformation [10]: Compound NOT metabolized
- Bacterial Biotransformation [11]: Compound metabolized
- Bacterial Biotransformation [12]: Compound metabolized
- Bacterial Biotransformation [13]: Compound metabolized
- Bacterial Biotransformation [14]: Compound metabolized
- Bacterial Biotransformation [15]: Compound metabolized
- Bacterial Biotransformation [16]: Compound NOT metabolized
- Bacterial Biotransformation [17]: Compound NOT metabolized
- Bacterial Biotransformation [18]: Compound metabolized
- Bacterial Biotransformation [19]: Compound metabolized
- Bacterial Biotransformation [20]: Compound metabolized

Structure (SMILES): CCCC(=O)Nc1ccc(OCC(O)CNC(C)C)c(C(C)=O)c1 (centres undefined) [ACEBUTOLOL]
- Bacterial Biotransformation [1]: Compound metabolized
- Bacterial Biotransformation [2]: Compound NOT metabolized
- Bacterial Biotransformation [3]: Compound NOT metabolized
- Bacterial Biotransformation [4]: Compound metabolized
- Bacterial Biotransformation [5]: Compound NOT metabolized
- Bacterial Biotransformation [6]: Compound metabolized
- Bacterial Biotransformation [7]: Compound NOT metabolized
- Bacterial Biotransformation [8]: Compound metabolized
- Bacterial Biotransformation [9]: Compound NOT metabolized
- Bacterial Biotransformation [10]: Compound metabolized
- Bacterial Biotransformation [11]: Compound metabolized
- Bacterial Biotransformation [12]: Compound metabolized
- Bacterial Biotransformation [13]: Compound NOT metabolized
- Bacterial Biotransformation [14]: Compound NOT metabolized
- Bacterial Biotransformation [15]: Compound NOT metabolized
- Bacterial Biotransformation [16]: Compound NOT metabolized
- Bacterial Biotransformation [17]: Compound NOT metabolized
- Bacterial Biotransformation [18]: Compound metabolized
- Bacterial Biotransformation [19]: Compound NOT metabolized
- Bacterial Biotransformation [20]: Compound metabolized

Structure (SMILES): C=CCc1ccccc1OCC(O)CNC(C)C (centres undefined) [ALPRENOLOL]
- Bacterial Biotransformation [1]: Compound NOT metabolized
- Bacterial Biotransformation [2]: Compound NOT metabolized
- Bacterial Biotransformation [3]: Compound NOT metabolized
- Bacterial Biotransformation [4]: Compound metabolized
- Bacterial Biotransformation [5]: Compound NOT metabolized
- Bacterial Biotransformation [6]: Compound metabolized
- Bacterial Biotransformation [7]: Compound NOT metabolized
- Bacterial Biotransformation [8]: Compound metabolized
- Bacterial Biotransformation [9]: Compound NOT metabolized
- Bacterial Biotransformation [10]: Compound NOT metabolized
- Bacterial Biotransformation [11]: Compound NOT metabolized
- Bacterial Biotransformation [12]: Compound metabolized
- Bacterial Biotransformation [13]: Compound NOT metabolized
- Bacterial Biotransformation [14]: Compound NOT metabolized
- Bacterial Biotransformation [15]: Compound NOT metabolized
- Bacterial Biotransformation [16]: Compound NOT metabolized
- Bacterial Biotransformation [17]: Compound metabolized
- Bacterial Biotransformation [18]: Compound metabolized
- Bacterial Biotransformation [19]: Compound NOT metabolized
- Bacterial Biotransformation [20]: Compound metabolized

Structure (SMILES): CC(C)c1c(C(=O)Nc2ccccc2)c(-c2ccccc2)c(-c2ccc(F)cc2)n1CC[C@@H](O)C[C@@H](O)CC(=O)O [ATORVASTATIN]
- Bacterial Biotransformation [1]: Compound metabolized
- Bacterial Biotransformation [2]: Compound metabolized
- Bacterial Biotransformation [3]: Compound NOT metabolized
- Bacterial Biotransformation [4]: Compound metabolized
- Bacterial Biotransformation [5]: Compound NOT metabolized
- Bacterial Biotransformation [6]: Compound metabolized
- Bacterial Biotransformation [7]: Compound NOT metabolized
- Bacterial Biotransformation [8]: Compound NOT metabolized
- Bacterial Biotransformation [9]: Compound NOT metabolized
- Bacterial Biotransformation [10]: Compound NOT metabolized
- Bacterial Biotransformation [11]: Compound metabolized
- Bacterial Biotransformation [12]: Compound metabolized
- Bacterial Biotransformation [13]: Compound NOT metabolized
- Bacterial Biotransformation [14]: Compound metabolized
- Bacterial Biotransformation [15]: Compound metabolized
- Bacterial Biotransformation [16]: Compound NOT metabolized
- Bacterial Biotransformation [17]: Compound NOT metabolized
- Bacterial Biotransformation [18]: Compound metabolized
- Bacterial Biotransformation [19]: Compound NOT metabolized
- Bacterial Biotransformation [20]: Compound metabolized

Structure (SMILES): COc1ccc2[nH]c([S+]([O-])Cc3ncc(C)c(OC)c3C)nc2n1 (centres undefined) [TENATOPRAZOLE]
- Bacterial Biotransformation [1]: Compound NOT metabolized
- Bacterial Biotransformation [2]: Compound metabolized
- Bacterial Biotransformation [3]: Compound metabolized
- Bacterial Biotransformation [4]: Compound metabolized
- Bacterial Biotransformation [5]: Compound metabolized
- Bacterial Biotransformation [6]: Compound metabolized
- Bacterial Biotransformation [7]: Compound metabolized
- Bacterial Biotransformation [8]: Compound NOT metabolized
- Bacterial Biotransformation [9]: Compound metabolized
- Bacterial Biotransformation [10]: Compound metabolized
- Bacterial Biotransformation [11]: Compound metabolized
- Bacterial Biotransformation [12]: Compound NOT metabolized
- Bacterial Biotransformation [13]: Compound NOT metabolized
- Bacterial Biotransformation [14]: Compound metabolized
- Bacterial Biotransformation [15]: Compound metabolized
- Bacterial Biotransformation [16]: Compound metabolized
- Bacterial Biotransformation [17]: Compound metabolized
- Bacterial Biotransformation [18]: Compound metabolized
- Bacterial Biotransformation [19]: Compound metabolized
